# Data as given in publication PMC2364024, “Bioavailability and dose-dependent anti-tumour effects of 9-cis retinoic acid on human neuroblastoma xenografts in rat” (British Journal of Cancer, 2001).
# Values joined by “and” are separate entries in the source; they are usually repeats but may differ in a detail not shown here. Identical values can stand only once. “Also recorded” adds a separate entry of the source. Like-named read-outs stand apart in the source and are kept apart here.
# Experiments:
# [1] = tested on: human neuroblastoma SH-SY5Y xenografts; test: Neuroblastoma SH-SY5Y xenograft tumour growth in nude rats; assay type: in vivo
# Procedure: This increases the importance of finding new therapeutic drugs. […] Two animals were sacrificed at each time point. […] The true tumour weight was recorded at autopsy. […] All treatments were administered with a gastric feeding tube.
# [2] = rat, in vivo; for conversion of 9-cis RA to its metabolite (4-oxo-9-cis RA) / ratio AUC (4-oxo-9-cis RA)/AUC (9 cis RA): male, Sprague-Dawley; for ratio AUC (4-oxo-9-cis RA)/AUC (9 cis RA) / AUC (area under the curve) / Cmax (concentration maximum) / T1/2 (elimination half-life): 9 mg
# [3] = tested on: human neuroblastoma SH-SY5Y xenografts; design: method as in Ponthan et al, 2001; settings: nude rats, 9-cis RA 5 mg day-1 (once daily); ref Ponthan et al, 2001; cited from earlier work
# [4] = Pharmacokinetic study of 9-cis RA in rat (plasma HPLC, one-compartment model)
smiles,measurement,setting,value
"CC1=C(/C=C/C(C)=C\C=C\C(C)=C\C(=O)O)C(C)(C)CCC1 [9-cis RA, 9-cis retinoic acid]","tumour weight, trend",[1]; 2 x 2.5 mg day-1 treated group,tendency towards a reduction in tumour weights
same,"tumour weight at sacrifice, median (and range)","[1]; 9-cis RA 2 mg day-1 (RA 1), n 10 tumours, 12 days",2.79 g and 1.49 to 9.98 g
same,effect on tumour growth,[1]; 9-cis RA 2 mg day-1 p.o.,no significant effect on tumour growth; also recorded: tumour growth-inhibiting effect was not significant
same,tumour volume compared to control tumours,"[1]; 9-cis RA 2 mg day-1 p.o., 12 days",no significant reduction in tumour volume
same,effect on tumour growth,[1]; 9-cis RA 2.5 mg p.o. twice daily,only limited effect on tumour growth; also recorded: limited but statisti- cally significant reduction in tumour growth
same,tumour volume compared to corresponding controls,"[1]; 9-cis RA 2.5 mg p.o. twice daily, day 8",not at day 8
same,"tumour weight at sacrifice, median (and range)","[1]; 9-cis RA 2 x 2.5 mg (RA 2), n 3 tumours, 10 days",1.84 g and 0.92 to 2.95 g
same,tumour weight compared to untreated control tumours,"[1]; regardless of treatment schedule (2 mg day-1 or 2.5 mg twice daily), after 10-12 days of therapy",no significant reduction in tumour weight
same,conversion of 9-cis RA to its metabolite (4-oxo-9-cis RA),[2]; iv,about 8%
same,ratio AUC (4-oxo-9-cis RA)/AUC (9 cis RA),[2]; iv,0.08
same,conversion of 9-cis RA to its metabolite (4-oxo-9-cis RA),[2]; po,42%
same,ratio AUC (4-oxo-9-cis RA)/AUC (9 cis RA),[2]; po,0.42
same,effect on tumour growth,[3],significant reduction in tumour growth
same,elimination half-life (t1/2),"[4]; 9 mg 9-cis RA, p.o. and i.v. taken together",26 to 43 min
same,AUC (area under the curve),"[4]; intravenous administration, 9 mg 9-cis RA",80100 ng·h/mL
same,Cmax,"[4]; male, Sprague-Dawley, plasma, iv, 9 mg",120000 ng/mL
same,half-life,"[4]; male, Sprague-Dawley, plasma, iv, 9 mg, T1/2 (elimination half-life), intravenous administration, 9 mg 9-cis RA",26.4 min
same,bioavailability,"[4]; male, Sprague-Dawley, plasma, oral, 9 mg",11%
same,half-life,"[4]; male, Sprague-Dawley, plasma, other: p.o. and i.v. taken together, 9 mg, elimination half-life (t1/2), 9 mg 9-cis RA, p.o. and i.v. taken together",35 min
same,Cmax,"[4]; male, Sprague-Dawley, plasma, po, 9 mg",3000 ng/mL
same,half-life,"[4]; male, Sprague-Dawley, plasma, po, 9 mg, T1/2 (elimination half-life), oral administration, 9 mg 9-cis RA",42.6 min
same,AUC (area under the curve),"[4]; oral administration, 9 mg 9-cis RA",8550 ng·h/mL
"CC1=C(/C=C/C(C)=C\C=C\C(C)=C\C(=O)O)C(C)(C)CCC1=O [4-oxo-9-cis RA, 4-oxo-9-cis retinoic acid]",formed amount (AUC) of 4-oxo-9-cis RA after i.v. versus p.o. administration,[2],2 fold
same,Tmax (time of Cmax),[2]; iv,188 min
same,AUC (area under the curve),[2]; iv,6295 ng/mL/h
same,Cmax (concentration maximum),[2]; iv,738 ng/mL
same,T1/2 (elimination half-life),[2]; iv,129 min
same,Tmax (time of Cmax),[2]; po,275 min
same,AUC (area under the curve),[2]; po,3563 ng/mL/h
same,Cmax (concentration maximum),[2]; po,441 ng/mL
same,T1/2 (elimination half-life),[2]; po,126 min
